Data: ChEMBL document CHEMBL5316293, “Novel Small-Molecule PD-L1 Inhibitor Induces PD-L1 Internalization and Optimizes the Immune Microenvironment” (J Med Chem, 2023)
Activity calls are given as the source filed them.

Key:
[1] = target: Programmed cell death 1 ligand 1 (Homo sapiens, UniProt Q9NZQ7); experiment: Inhibition of PD-1 Fc IgG fusion protein binding to PD-L1 in human NCI-H460 cells incubated for 6 hrs by DAPI/PD-1 anti-human IgG DyLight 488 staining based fluorescence microscopy; type: cell-based
Sequence of Programmed cell death 1 ligand 1 (Q9NZQ7 whole entry, the tested form may be a part): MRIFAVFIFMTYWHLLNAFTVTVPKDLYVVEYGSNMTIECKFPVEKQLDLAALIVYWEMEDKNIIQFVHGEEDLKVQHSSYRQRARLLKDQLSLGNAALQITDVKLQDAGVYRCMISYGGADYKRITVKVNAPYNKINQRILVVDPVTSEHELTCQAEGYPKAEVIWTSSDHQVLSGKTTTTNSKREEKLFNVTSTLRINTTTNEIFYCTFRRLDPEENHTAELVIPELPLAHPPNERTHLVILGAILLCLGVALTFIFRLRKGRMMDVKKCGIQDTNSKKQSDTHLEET

[2] = Toxicity in ICR mouse assessed as body weight loss at 500 to 5000 mg/kg, po administered via gavage for 2 weeks; type: organism-based; conditions: in vivo, 336 h, dose 500-5000 mg/kg
[3] = Toxicity in ICR mouse assessed as reduction in heart weight at 500 to 5000 mg/kg, po administered via gavage for 2 weeks; type: organism-based; conditions: in vivo, 336 h, dose 500-5000 mg/kg
[4] = Toxicity in ICR mouse assessed as reduction in spleen weight at 500 to 5000 mg/kg, po administered via gavage for 2 weeks; type: organism-based; conditions: in vivo, 336 h, dose 500-5000 mg/kg
[5] = Toxicity in ICR mouse assessed as reduction in lungs weight at 500 to 5000 mg/kg, po administered via gavage for 2 weeks; type: organism-based; conditions: in vivo, 336 h, dose 500-5000 mg/kg
[6] = Toxicity in ICR mouse assessed as reduction in kidney weight at 500 to 5000 mg/kg, po administered via gavage for 2 weeks; type: organism-based; conditions: in vivo, 336 h, dose 500-5000 mg/kg
[7] = AUC (0 to infinity) in ICR mouse at 5 mg/kg, iv; type: ADME, organism-based; design: dose 5 mg/kg, route iv; conditions: in vivo
[8] = Half life in ICR mouse at 5 mg/kg, iv; type: ADME, organism-based; conditions: in vivo
[9] = system: MC38-hPD-L1; experiment: Antitumor activity against humanized mouse MC38-hPD-L1 cells implanted in hPD-1 knockin C57BL/6 mouse assessed as tumor growth inhibition at 10 mg/kg, ip administered for 12 days starting from day 7 post tumor implantation and measured every 2 days relative to control; type: functional; conditions: MC38-hPD-L1, 288 h, time 12 day, read-out: TGI
[10] = system: MC38-hPD-L1; experiment: Antitumor activity against humanized mouse MC38-hPD-L1 cells implanted in hPD-1 knockin C57BL/6 mouse assessed as tumor growth inhibition at 25 mg/kg, ip administered for 12 days starting from day 7 post tumor implantation and measured every 2 days relative to control; type: functional; conditions: MC38-hPD-L1, 288 h, time 12 day, read-out: TGI
[11] = system: LLC-hPD-L1; experiment: Antitumor activity against humanized mouse LLC-hPD-L1 cells implanted in hPD-1 knockin C57BL/6 mouse assessed as increase in tumor cell apoptosis by measuring increase in cleaved caspase-3 level administered intraperitoneally for 12 days starting from day 7 post tumor implantation by immunohistochemistry analysis; type: functional, cell-based; conditions: dose 10-25 mg/kg, route ip, time 12.0 day
[12] = system: MC38-hPD-L1; experiment: Antitumor activity against humanized mouse MC38-hPD-L1 cells implanted in hPD-1 knockin C57BL/6 mouse assessed as increase in CD69-positive CD137-positive T cells at 10 to 25 mg/kg, ip administered for 12 days starting from day 7 post tumor implantation by flow cytometry analysis; type: functional, organism-based; conditions: dose 10-25 mg/kg, time 12.0 day
[13] = system: MC38-hPD-L1; experiment: Antitumor activity against humanized mouse MC38-hPD-L1 cells implanted in hPD-1 knockin C57BL/6 mouse assessed as increase in IFN-gamma level at 10 to 25 mg/kg, ip administered for 12 days starting from day 7 post tumor implantation by flow cytometry analysis; type: functional, organism-based; conditions: dose 10-25 mg/kg, time 12.0 day
[14] = system: MC38-hPD-L1; experiment: Antitumor activity against humanized mouse MC38-hPD-L1 cells implanted in hPD-1 knockin C57BL/6 mouse assessed as reduction in M2 macrophages at 10 to 25 mg/kg, ip administered for 12 days starting from day 7 post tumor implantation by flow cytometry analysis; type: functional, organism-based; conditions: dose 10-25 mg/kg, time 12.0 day
[15] = system: MC38-hPD-L1; experiment: Antitumor activity against humanized mouse MC38-hPD-L1 cells implanted in hPD-1 knockin C57BL/6 mouse assessed as reduction in Treg cells at 10 to 25 mg/kg, ip administered for 12 days starting from day 7 post tumor implantation by flow cytometry analysis; type: functional, organism-based; conditions: dose 10-25 mg/kg, time 12.0 day
[16] = system: LLC-hPD-L1; experiment: Antitumor activity against humanized mouse LLC-hPD-L1 cells implanted in hPD-1 knockin C57BL/6 mouse assessed as increase in CD8-positive T cells at 10 to 25 mg/kg, ip administered for 12 days starting from day 7 post tumor implantation by flow cytometry analysis; type: functional, organism-based; conditions: dose 10-25 mg/kg, time 12.0 day
[17] = system: LLC-hPD-L1; experiment: Antitumor activity against humanized mouse LLC-hPD-L1 cells implanted in hPD-1 knockin C57BL/6 mouse assessed as increase in CD69-positive CD137-positive T cells at 10 to 25 mg/kg, ip administered for 12 days starting from day 7 post tumor implantation by flow cytometry analysis; type: functional, organism-based; conditions: dose 10-25 mg/kg, time 12.0 day
[18] = system: LLC-hPD-L1; experiment: Antitumor activity against humanized mouse LLC-hPD-L1 cells implanted in hPD-1 knockin C57BL/6 mouse assessed as increase in GzmB level at 10 to 25 mg/kg, ip administered for 12 days starting from day 7 post tumor implantation by flow cytometry analysis; type: functional, organism-based; conditions: dose 10-25 mg/kg, time 12.0 day
[19] = system: LLC-hPD-L1; experiment: Antitumor activity against humanized mouse LLC-hPD-L1 cells implanted in hPD-1 knockin C57BL/6 mouse assessed as increase in IFN-gamma level at 10 to 25 mg/kg, ip administered for 12 days starting from day 7 post tumor implantation by flow cytometry analysis; type: functional, organism-based; conditions: dose 10-25 mg/kg, time 12.0 day
[20] = system: LLC-hPD-L1; experiment: Antitumor activity against humanized mouse LLC-hPD-L1 cells implanted in hPD-1 knockin C57BL/6 mouse assessed as reduction in M2 macrophages at 10 to 25 mg/kg, ip administered for 12 days starting from day 7 post tumor implantation by flow cytometry analysis; type: functional, organism-based; conditions: dose 10-25 mg/kg, time 12.0 day
[21] = system: LLC-hPD-L1; experiment: Antitumor activity against humanized mouse LLC-hPD-L1 cells implanted in hPD-1 knockin C57BL/6 mouse assessed as reduction in MDSC cells at 10 to 25 mg/kg, ip administered for 12 days starting from day 7 post tumor implantation by flow cytometry analysis; type: functional, organism-based; conditions: dose 10-25 mg/kg, time 12.0 day
[22] = system: LLC-hPD-L1; experiment: Antitumor activity against humanized mouse LLC-hPD-L1 cells implanted in hPD-1 knockin C57BL/6 mouse assessed as reduction in Treg cells at 10 to 25 mg/kg, ip administered for 12 days starting from day 7 post tumor implantation by flow cytometry analysis; type: functional, organism-based; conditions: dose 10-25 mg/kg, time 12.0 day
[23] = system: LLC-hPD-L1; experiment: Antitumor activity against humanized mouse LLC-hPD-L1 cells implanted in hPD-1 knockin C57BL/6 mouse assessed as macrophage polarization into M1 phenotype at 25 mg/kg, ip administered for 12 days starting from day 7 post tumor implantation by flow cytometry analysis; type: functional, organism-based; conditions: time 12.0 day
[24] = target: Programmed cell death protein 1/Programmed cell death 1 ligand 1 (Homo sapiens) (UniProt Q15116+Q9NZQ7); experiment: Inhibition of PD-1/PD-L1 interaction in human NCI-H358 cells harboring high level PD-L1 expression assessed as increase in transcriptional-mediated bioluminescent signal preincubated with compound followed by washout and further cultured with Jurkat cells transfected with NFAT luciferase by bio-glo reagent based assay; type: cell-based; conditions: dose 50-200 nM
[25] = system: A549; experiment: Cytotoxicity against human A549 cells assessed as reduction in tumor proliferation at 10 to 20 uM incubated for 48 hrs by xCELLigence RTCA system analysis; type: functional, cell-based; conditions: dose 10-20 µM
[26] = system: NCI-H460; experiment: Cytotoxicity against human NCI-H460 cells cocultured with human PBMC cells assessed as increase in clearance of tumor cells at 100 to 200 nM preincubated for 30 mins followed by NCI-H460 cells addition and further coincubated for 24 hrs with human PBMC cells by cell impedence assay; type: functional, cell-based; conditions: dose 100-200 nM, time 24.5 hrs
[27] = species: Homo sapiens; experiment: Internalization of PD-L1 in cytoplasm of human RKO cells transfected with DsRed and human calreticulin assessed as colocalization of PD-L1 with endoplasmic reticulum-resident calreticulin at 1 micromol/L incubated for 12 hrs by fluorescence microscopy; type: functional, cell-based; conditions: dose 1.0 µmol/L

COc1cc2c(cc1CN[C@@H](CO)C(=O)O)C(=O)N(c1cccc(-c3ccccc3)c1C)C2=O
9.78 h: half-life [8]
Non-Toxic: Activity [2] | Activity [3] | Activity [4] | Activity [5] | Activity [6]
65.9%: inhibition in vivo at 10 mg/kg [9]
121 nM: EC50 [1]
3570 ng·h/mL: AUC(0-inf) [7]
active: Activity [11] Dose-Dependent Effect | Activity [12] | Activity [13] | Activity [14] | Activity [15] | Activity [16] | Activity [17] | Activity [18] | Activity [19] | Activity [20] | Activity [21] | Activity [22] | Activity [23] | inhibition [24] Dose-Dependent Effect | Activity [26] | Activity [27]
88.8%: inhibition in vivo at 25 mg/kg [10]
inactive: Activity [25]
